The target of assay [1] is T1, LIN28A (16-126) CSD protein (Homo sapiens, UniProt Q9H9Z2).
T1 construct: incubated with LIN28A (16-126) CSD protein; pET19a or pMAL vector) (cleaved yes); made in house; host or cells: Escherichia coli BL21(DE3)
T1 sequence (Q9H9Z2 16-126): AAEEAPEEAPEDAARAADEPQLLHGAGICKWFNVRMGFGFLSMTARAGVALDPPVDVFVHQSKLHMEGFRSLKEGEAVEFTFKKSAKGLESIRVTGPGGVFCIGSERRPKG
The assay can be described thus: Nano differential scanning fluorimetry (nanoDSF) thermal shift. The format is binding. The note with it: compound at 75 μM. The protocol:
(§1) Nano differential scanning fluorimetry (nanoDSF)
Compounds (final concentration 75 µM) were incubated with LIN28A (16-126) CSD protein
for 45 minutes at room temperature in a buffer containing 30 mM NaH2PO4, 50 mM NaCl and
1 mM MgCl2 at pH 8.0. Thermal protein stability was determined using NanoTemper
Prometheus NT.48 with a temperature ramp from 20 °C to 90 °C increasing the temperature by
1 °C per minute. Melting temperatures were determined using the software of the device. […]
(§2) Master Mix II, with UNG (A pplied Biosystems) and a CFX Connect Real -Time PCR System

Assay [2] addresses T2, LIN28A(16–187)–let-7 interaction (Homo sapiens, UniProt Q9H9Z2).
T2 construct: LIN28A(16–187) or LIN28B(24–111); pET19a or pMAL vector) (cleaved yes); made in house; host or cells: Escherichia coli BL21(DE3)
T2 sequence (Q9H9Z2 16-187): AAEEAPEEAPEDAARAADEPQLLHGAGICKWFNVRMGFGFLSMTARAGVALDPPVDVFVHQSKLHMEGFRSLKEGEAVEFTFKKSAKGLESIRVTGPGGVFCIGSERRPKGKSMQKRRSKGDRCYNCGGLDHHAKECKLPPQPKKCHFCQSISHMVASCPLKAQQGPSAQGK
Put plainly: Electrophoretic mobility shift assay (EMSA), disruption of LIN28–let-7 complex. The format is binding. The note with it: for IC50: concentration-dependent EMSA, some values estimated, read-out: IC50 in dose–response EMSA; for inhibition at 75 µM: single concentration of 75 μM, read-out: inhibition of the LIN28–let-7 interaction measured in EMSA. As to the method: (§3) Inhibition of the LIN28–let-7 complex was evaluated by electrophoretic mobility shift assays. Mixtures containing compound at indicated concentrations, LIN28A(16–187) or LIN28B(24–111), and recombinant ribonuclease inhibitor (TaKaRa Bio) were incubated at room temperature for 2 h. The reaction buffer contained 50 mM TRIS, pH 7.5, 100 mM NaCl, 10 mM β-mercaptoethanol, 50 μM ZnCl2, 2% DMSO, 0.01% Tween-20 and 12% glycerol. Cy-3-fluorophore labeled RNA, (pre-E let-7f-1-Cy3, Mus musculus, […]-Cy3, purchased from IDT) was added to the reaction and incubated for further 15 min. The final concentrations were as follows: 10 nM LIN28A or 200 nM LIN28B, 5 nM RNA. Of each mixture, 10 μL was analyzed on a nondenaturing PAGE (5.3% acrylamide TAE PAGE for full-length LIN28 and 10% acrylamide TAE PAGE for analysis of the CSD) prerun for 1 h without sample and run for 1 h at 220 V at 4 °C in 0.25× TAE buffer. Gels were imaged using a ChemiDoc MP instrument (Bio-Rad Laboratories). Band intensities were analyzed using ImageJ and inhibition was quantified by calculation of the ratio of free RNA fluorescence to the fluorescence of the protein–RNA complex, and normalization to free RNA and LIN28–let-7 complex controls. The intensity ratio was analyzed by nonlinear regression fit in GraphPad Prism to determine the IC50 values.

The next assay concerns the target T3, LIN28B–let-7 interaction (Homo sapiens, UniProt Q6ZN17).
T3 construct: residues 24–111 of the LIN28B cold shock domain; pET19a or pMAL vector) (cleaved yes); made in house; host or cells: Escherichia coli BL21(DE3)
T3 sequence (Q6ZN17 24-111): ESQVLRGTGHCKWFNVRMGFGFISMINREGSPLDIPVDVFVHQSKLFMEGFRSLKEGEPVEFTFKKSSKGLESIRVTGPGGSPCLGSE
The assay can be described thus: EMSA with LIN28B. The note with it: Figure S3. The class given is binding. The protocol:
as §3
On the technique in general: Mobility shift assays separate free from complexed probe on a gel.

In a further assay the target is T4, LIN28A CSD (Homo sapiens, UniProt Q9H9Z2).
T4 construct: residues 16–126 of the LIN28A cold shock domain; pET19a or pMAL vector) (cleaved yes); made in house; host or cells: Escherichia coli BL21(DE3)
T4 sequence (Q9H9Z2 16-126): T1 sequence (Q9H9Z2 16-126)
The assay can be described thus: Biolayer interferometry (BLI). The class given is binding. As to the method: (§4) Biolayer Interferometry (BLI)
Recombinant LIN28A CSD was biotinylated with EZ-Link Sulfo NHS-LC-LC-Biotin (Thermo Fisher Scientific) following the manufacturer's guidelines with a labeling ratio of one biotin per protein. Free biotin reagent was removed during dialysis against buffer (20 mM HEPES pH 7.5, 150 mM NaCl, 1 mM MgCl2). After loading optimization, the protein was immobilized on SA biosensors (Sartorius). The association and dissociation of compounds were recorded in a buffer containing 20 mM HEPES pH 7.5, 150 mM NaCl, 1 mM MgCl2, 0.05 % Tween 20, 1 % DMSO and 0.3 mg/mL BSA. Data was measured and analyzed using an Octet Red384 instrument (Sartorius). Double referencing against samples without compound and sensors loaded with 10 µg/mL biocytin instead of protein was performed. […]
as §2
(In BLI a coated tip is dipped into the sample, and binding shifts an interference pattern.)

For assay [3], the system named is mature let-7d and let-7i levels in JAR cells. Put plainly: qPCR of mature let-7 miRNA levels in JAR cells. The format is cell-based. The note with it: 24 h. As to the method: as §1
Compounds (final concentration 75 µM) were incubated with LIN28A (16-126) CSD protein for 45 minutes at room temperature in a buffer containing 30 mM NaH2PO4, 50 mM NaCl and 1 mM MgCl2 at pH 8.0. Thermal protein stability was determined using NanoTemper Prometheus NT.48 with a temperature ramp from 20 °C to 90 °C increasing the temperature by 1 °C per minute. Melting temperatures were determined using the software of the device.
as §4
Recombinant LIN28A CSD was biotinylated with EZ-Link Sulfo NHS-LC-LC-Biotin (Thermo Fisher Scientific) following the manufacturer's guidelines with a labeling ratio of one biotin per protein. Free biotin reagent was removed during dialysis against buffer (20 mM HEPES pH 7.5, 150 mM NaCl, 1 mM MgCl2). […] The association and dissociation of compounds were recorded in a buffer containing 20 mM HEPES pH 7.5, 150 mM NaCl, 1 mM MgCl2, 0.05 % Tween 20, 1 % DMSO and 0.3 mg/mL BSA. Data was measured and analyzed using an Octet Red384 instrument (Sartorius). […]
For computational docking analysis of pyrrolinones 11S/R to the RNA binding site of LIN28A (PDB code: 5UDZ)1 Schrödinger® Maestro 12.3 was used. […] The glide dock module was used and the results were evaluated according to interactions between small molecules and LIN28A, small molecule orientations, docking scores and solvent exposure patterns. […]

We go through five compounds from PMC10726440, “N-Biphenyl Pyrrolinones and Dibenzofurans as RNA-Binding Protein LIN28 Inhibitors Disrupting the LIN28–Let-7 Interaction” (ACS Medicinal Chemistry Letters, 2023).

Where “and” joins values, the source holds several entries; their conditions need not be identical. Equal entries are not always repeated.

In the case of `Cn1nnc2cc(C3C(C(=O)c4ccccc4)=C(O)C(=O)N3c3ccc(O)c(C(=O)O)c3)ccc21` (centres unmarked) [Compound 8], the “increase in thermal stability (melting temperature shift) of the LIN28 CSD” value in assay [1] is “less than 0.5 °C”. In assay [2], the IC50 is > 75 µM and ~90 µM; the inhibition at 75 µM amounted to 69.9%.
For `O=C(C1=C(O)C(=O)N(c2cccc(-c3ccccc3)c2)[C@@H]1c1ccc([N+](=O)[O-])cc1)c1ccccc1` [Compound 11R], the “increase in thermal stability (melting temperature shift) of the LIN28 CSD” value in assay [1] is about 1.9 °C. In addition, the IC50 in assay [2] is 24 µM.
Take `O=C(C1=C(O)C(=O)N(c2cccc(-c3ccccc3)c2)[C@H]1c1ccc([N+](=O)[O-])cc1)c1ccccc1` [Compound 11S]: in assay [1], the “increase in thermal stability (melting temperature shift) of the LIN28 CSD” value is about 1.9 °C. In addition, the IC50 in assay [2] is 37 µM.
In the case of `O=C(C1=C(O)C(=O)N(c2cccc(-c3ccccc3)c2)C1c1ccc([N+](=O)[O-])cc1)c1ccccc1` (centres unmarked) [Compound 11], the “inhibition of the LIN28B–let-7 interaction in EMSA (in words)” value on LIN28B–let-7 interaction is “concentration-dependent manner”. For the same compound, at LIN28A CSD, the “direct binding to the LIN28 CSD in biolayer interferometry (in words)” value was “concentration-dependent binding”. Besides, the “effect on biogenesis of mature let-7i and let-7d miRNAs (in words)” value in assay [3] is on record as “concentration-dependent manner”. Besides, in assay [2], the IC50 is 27 µM and the inhibition at 75 µM stood at 95%.
On to `O=C(C1=C(O)C(=O)N(c2ccc3c(c2)oc2ccccc23)C1c1ccc([N+](=O)[O-])cc1)c1ccco1` (centres unmarked) [Compound 49], for which the “inhibition of LIN28–let-7 complex formation in concentration-dependent EMSA (in words)” value in assay [2] (dose–response EMSA) was “best inhibitory activities among the evaluated molecules”. Moreover, the inhibition at 75 µM in assay [2] was determined as 95%.

The term IC50 denotes the concentration that gives 50% inhibition. For orientation: inhibition means the share of the control response that was lost under treatment.
